ChEMBL document CHEMBL1124880 (J Med Chem, 1990)

Assays:
[1] = biological target: T1, Adenosine receptor A1 (Rattus norvegicus, UniProt P25099); experiment: Evaluated for the binding affinity towards the Adenosine A1 receptor in cerebral cortices of Sprague-Dawley male rats using [3H]CHA as radioligand.
T1 sequence (P25099 whole entry): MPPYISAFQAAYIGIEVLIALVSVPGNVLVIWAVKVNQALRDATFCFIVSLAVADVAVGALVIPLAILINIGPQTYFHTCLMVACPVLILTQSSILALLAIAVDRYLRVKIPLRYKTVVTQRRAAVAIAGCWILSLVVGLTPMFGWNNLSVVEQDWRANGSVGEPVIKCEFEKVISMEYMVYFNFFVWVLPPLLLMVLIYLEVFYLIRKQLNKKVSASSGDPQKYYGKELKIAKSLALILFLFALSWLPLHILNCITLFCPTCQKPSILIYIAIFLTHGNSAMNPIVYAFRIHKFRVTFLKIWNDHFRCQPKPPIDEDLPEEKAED

[2] = organism: Rattus norvegicus; experiment: Minimal effective dose in an rat anti-immobility effect using behavioral despair test; type: functional; conditions: read-out: MED
[3] = biological target: T2, Adenosine A2 receptor (Rattus norvegicus, UniProt P29276+P30543)
[4] = biological target: T1, Adenosine receptor A1; experiment: Binding affinity towards the adenosine A1 receptor in cerebral cortices of Sprague-Dawley male rats using [3H]CHA as radioligand.
[5] = biological target: Phosphodiesterase 1 (Rattus norvegicus, UniProt Q63421+Q9EPR9+Q01066); experiment: Evaluated for Ca++ dependent phosphodiesterase activity.; type: functional
[6] = organism: Rattus norvegicus; experiment: Evaluated for Ca++ independent phosphodiesterase activity.; type: functional
[7] = biological target: Adenosine receptor A1 (Rattus norvegicus) (UniProt P25099); experiment: Binding affinity for Adenosine A1 receptor in cerebral cortices of Sprague-Dawley male rats using [3H]CHA
[8] = biological target: T1, Adenosine receptor A1; experiment: Binding affinity for Adenosine A1 receptor in cerebral cortices of Sprague-Dawley male rats using [3H]-CHA
[9] = biological target: T1, Adenosine receptor A1
[10] = biological target: T2, Adenosine A2 receptor; experiment: Binding affinity for Adenosine A2 receptor in corpora striata of rats using [3H]NECA; type: protein assay

Compound `CC(C)Nc1ncnc2c1ncn2[C@@H]1O[C@H](CO)[C@@H](O)[C@H]1O` has an IC50 [1] of 3700 nM.
With `CC(C)Nc1nc2ccccc2n2cnnc12` the minimal effective dose [2] was 3.2 mg/kg, the IC50 [3] was 17000 nM and the IC50 [4] was 4100 nM.
In the case of `CC(C)Nc1nc2ccc(Cl)cc2n2c(-c3ccccc3)nnc12`, the minimal effective dose [2] is reported as under 32 mg/kg, the IC50 [3] is reported as over 100000 nM and the IC50 [5] is reported as over 10 µM. It also gave an IC50 [4] of 3200 nM and an IC50 [6] of over 10000 nM.
Work on `Nc1nc2ccc(Cl)cc2n2c(-c3ccccc3)nnc12` yielded a minimal effective dose [2] of over 32 mg/kg, an IC50 [3] of 21 nM and an IC50 [4] of 270 nM.
`CCc1nnc2c(N(C)C)nc3ccccc3n12` showed a minimal effective dose [2] of at most 3.2 mg/kg and an IC50 [7] of 12000 nM.
`CCN(CC)c1nc2ccc(Cl)cc2n2c(C(F)(F)F)nnc12` showed a minimal effective dose [2] of at most 32 mg/kg, an IC50 [3] of over 100000 nM and an IC50 [4] of over 100000 nM.
`CCc1nnc2c(NC(C)C)nc3cc(F)ccc3n12` was tested, and the minimal effective dose [2] was at least 32 mg/kg, the IC50 [3] was 48000 nM and the IC50 [4] was 440 nM.
In the case of `Fc1ccc2nc(NC3CCCCC3)c3nnc(C(F)(F)F)n3c2c1`, the minimal effective dose [2] is reported as over 32 mg/kg, the IC50 [3] is reported as 60000 nM and the IC50 [5] is reported as over 10 µM. For the same compound, the IC50 [4] was 32 nM and the IC50 [6] was 6000 nM.
`Nc1nc2ccc(Cl)cc2n2c(C(F)(F)F)nnc12` gave a minimal effective dose [2] of 3.2 mg/kg, an IC50 [3] of 44 nM and an IC50 [5] of over 10 µM. It also gave an IC50 [4] of 65 nM and an IC50 [6] of 2000 nM.
In the case of `CCc1nnc2c(NC(C)C)nc3c(Cl)cccc3n12`, the minimal effective dose [2] is reported as at most 32 mg/kg, the IC50 [3] is reported as over 100000 nM and the IC50 [5] is reported as >> 10 uM. The IC50 [4] was 6800 nM and the IC50 [6] was over 10000 nM.
`CC(C)Nc1nc2ccc(F)cc2n2cnnc12` showed a minimal effective dose [2] of at most 3.2 mg/kg, an IC50 [3] of 6900 nM and an IC50 [5] of over 100 µM. The IC50 [4] was 680 nM and the IC50 [6] was 4500 nM.
With `CCCN(CCC)c1nc2ccc(F)cc2n2c(C(F)(F)F)nnc12` the minimal effective dose [2] was over 32 mg/kg, the IC50 [5] was >> 10 uM and the IC50 [6] was over 10000 nM.
Work on `CCc1nnc2c(N(CC)CC)nc3ccccc3n12` yielded a minimal effective dose [2] of 3.2 mg/kg, an IC50 [5] of 0.1 µM and an IC50 [4] of 7400 nM. For the same compound, the IC50 [6] was 3700 nM.
`CCc1nnc2c(NC(C)C)nc3cc(Cl)c(Cl)cc3n12` was tested, and the minimal effective dose [2] was at most 32 mg/kg, the IC50 [3] was 3200 nM and the IC50 [4] was 110 nM.
`Nc1nc2ccc(F)cc2n2c(C(F)(F)F)nnc12` gave a minimal effective dose [2] of 1 mg/kg, an IC50 [3] of 100 nM and an IC50 [4] of 290 nM.
`CC(C)Nc1nc2ccc(Cl)cc2n2c(C(F)(F)F)nnc12` showed a minimal effective dose [2] of at most 3.2 mg/kg, an IC50 [3] of 2300 nM and an IC50 [5] of 1 µM. For the same compound, the IC50 [4] was 24 nM and the IC50 [6] was 1000 nM.
For `CCc1nnc2c(N)nc3cc(Cl)c(Cl)cc3n12`, the minimal effective dose [2] was 3.2 mg/kg, the IC50 [3] was 23 nM and the IC50 [4] was 110 nM.
`COc1ccc2c(c1)nc(N)c1nncn12` was tested, and the minimal effective dose [2] was 3.2 mg/kg, the IC50 [3] was 100 nM and the IC50 [5] was >> 10 uM. For the same compound, the IC50 [4] was 1400 nM and the IC50 [6] was over 10000 nM.
`CC(C)Nc1nc2ccc(Cl)cc2n2c(C(F)(F)C(F)(F)F)nnc12` showed a minimal effective dose [2] of 32 mg/kg, an IC50 [3] of 3100 nM and an IC50 [4] of 24 nM.
Work on `CCNc1nc2cc(Cl)ccc2n2c(CC)nnc12` yielded a minimal effective dose [2] of 3.2 mg/kg, an IC50 [5] of over 10 µM and an IC50 [6] of 200 nM.
`CCc1nnc2c(N)nc3cc(OC)ccc3n12` gave a minimal effective dose [2] of over 32 mg/kg, an IC50 [3] of 36 nM and an IC50 [4] of 140 nM.
Compound `CC(C)Nc1nc2ccc(F)cc2n2c(C(F)(F)F)nnc12` has a minimal effective dose [2] of at most 3.2 mg/kg, an IC50 [3] of 3900 nM and an IC50 [5] of 24 µM. The IC50 [4] was 57 nM and the IC50 [6] was 370 nM.
Work on `CCc1nnc2c(NC(C)C)nc3ccccc3n12` yielded a minimal effective dose [2] of 10 mg/kg, an IC50 [3] of 6400 nM and an IC50 [5] of 3 µM. For the same compound, the IC50 [4] was 660 nM and the IC50 [6] was 300 nM.
`CCN(CC)c1nc2ccccc2n2cnnc12` gave a minimal effective dose [2] of 10 mg/kg, an IC50 [3] of 42000 nM and an IC50 [5] of 1.2 µM. It also gave an IC50 [4] of 27000 nM and an IC50 [6] of 3000 nM.
Work on `CC(C)Nc1nc2ccc(Cl)cc2n2cnnc12` yielded a minimal effective dose [2] of 3.2 mg/kg, an IC50 [3] of 3300 nM and an IC50 [4] of 370 nM.
In the case of `Clc1ccc2nc(N3CCNCC3)c3nnc(-c4ccccc4)n3c2c1`, the minimal effective dose [2] is reported as over 32 mg/kg, the IC50 [5] is reported as >> 10 uM and the IC50 [6] is reported as 10000 nM.
For `CCc1nnc2c(N)nc3cc(F)ccc3n12`, the minimal effective dose [2] was 3.2 mg/kg, the IC50 [3] was 170 nM and the IC50 [5] was >> 10 uM. It also gave an IC50 [4] of 580 nM and an IC50 [6] of 40000 nM.
With `CCc1nnc2c(N)nc3ccc(Cl)cc3n12` the minimal effective dose [2] was at most 3.2 mg/kg, the IC50 [3] was 28 nM and the IC50 [4] was 110 nM.
`CCc1nnc2c(N)nc3ccccc3n12` gave a minimal effective dose [2] of 3.2 mg/kg, an IC50 [3] of 62 nM and an IC50 [5] of 2 µM. The IC50 [4] was 430 nM and the IC50 [6] was 12000 nM.
`CCc1nnc2c(NC(C)C)nc3ccc(Cl)cc3n12` was tested, and the minimal effective dose [2] was at most 3.2 mg/kg, the IC50 [3] was 1700 nM and the IC50 [5] was 2 µM. For the same compound, the IC50 [4] was 60 nM and the IC50 [6] was 500 nM.
`CC(C)Nc1nc2cc(F)ccc2n2cnnc12` was tested, and the minimal effective dose [2] was over 32 mg/kg, the IC50 [3] was 13000 nM and the IC50 [5] was over 100 µM. The IC50 [4] was 4500 nM and the IC50 [6] was 6000 nM.
`CCc1nnc2c(NC3CCCC3)nc3ccc(Cl)cc3n12` showed a minimal effective dose [2] of over 32 mg/kg, an IC50 [3] of 890 nM and an IC50 [4] of 20 nM.
In the case of `FC(F)(F)c1nnc2c(NC3CCCC3)nc3ccc(Cl)cc3n12`, the minimal effective dose [2] is reported as over 32 mg/kg, the IC50 [3] is reported as 2100 nM and the IC50 [4] is reported as 5.5 nM.
`CCc1nnc2c(NC(C)C)nc3cc(F)c(F)cc3n12` gave a minimal effective dose [2] of at most 32 mg/kg, an IC50 [3] of 6400 nM and an IC50 [4] of 280 nM.
Compound `Nc1nc2ccc(F)cc2n2cnnc12` has a minimal effective dose [2] of at most 32 mg/kg, an IC50 [3] of 1000 nM and an IC50 [5] of over 10 µM. For the same compound, the IC50 [4] was 2900 nM and the IC50 [6] was 4000 nM.
`CCc1nnc2c(N[C@@H](C)Cc3ccccc3)nc3ccc(Cl)cc3n12` showed a minimal effective dose [2] of over 32 mg/kg, an IC50 [3] of over 100000 nM and an IC50 [4] of 680 nM.
In the case of `Nc1nc2ccc(Cl)cc2n2c(-c3ccc(Cl)cc3)nnc12`, the IC50 [8] is reported as 510 nM and the IC50 [3] is reported as 33 nM.
With `CCNc1nc2ccccc2n2cnnc12` the minimal effective dose [2] was 3.2 mg/kg, the IC50 [3] was 110000 nM and the IC50 [4] was 29000 nM.
Compound `c1ccc2c(c1)nc(N1CCNCC1)c1nncn12` has a minimal effective dose [2] of over 32 mg/kg, an IC50 [5] of 3 µM and an IC50 [4] of over 10000 nM. For the same compound, the IC50 [6] was 7000 nM.
`CCc1nnc2c(Nc3ccccc3)nc3ccc(Cl)cc3n12` gave a minimal effective dose [2] of over 32 mg/kg, an IC50 [3] of over 100000 nM and an IC50 [4] of 380 nM.
`CCNc1nc2ccccc2n2c(CC)nnc12` gave a minimal effective dose [2] of 3.2 mg/kg, an IC50 [3] of 9500 nM and an IC50 [5] of 20 µM. The IC50 [4] was 1800 nM and the IC50 [6] was 2500 nM.
`FC(F)(F)c1nnc2c(NC3CCCCC3)nc3ccc(Cl)cc3n12` showed a minimal effective dose [2] of over 32 mg/kg, an IC50 [3] of over 100000 nM and an IC50 [5] of over 10 µM. It also gave an IC50 [4] of 28 nM and an IC50 [6] of over 10000 nM.
For `COc1nnc2c(NC(C)C)nc3ccc(F)cc3n12`, the minimal effective dose [2] was at most 32 mg/kg, the IC50 [3] was 6500 nM and the IC50 [4] was 160 nM.
Compound `Cn1c(=O)c2c(ncn2C)n(C)c1=O` [CAFFEINE] has a minimal effective dose [2] of 3.2 mg/kg, an IC50 [5] of 70 µM and an IC50 [6] of 170000 nM.
`CC(C)Cn1c(=O)n(C)c(=O)c2nc[nH]c21` [ISOBUTYLMETHYLXANTHINE] was tested, and the minimal effective dose [2] was over 32 mg/kg, the IC50 [3] was 13000 nM and the IC50 [5] was 0.1 µM. It also gave an IC50 [4] of 7000 nM and an IC50 [6] of 3500 nM.
For `OC[C@H]1O[C@@H](n2cnc3c(Nc4ccccc4)ncnc32)[C@H](O)[C@@H]1O` [N6-PHENYLADENOSINE], the Ki [9] was 3 nM, the IC50 [1] was 6.5 nM and the Ki [10] was 50000 nM.
For `COc1ccc(C2CNC(=O)C2)cc1OC1CCCC1` (configuration not stated) [ROLIPRAM], the minimal effective dose [2] was over 32 mg/kg, the IC50 [3] was over 100000 nM and the IC50 [5] was over 100 µM. For the same compound, the IC50 [4] was over 100000 nM and the IC50 [6] was 250 nM.
